In the NIST ThermoML archive (doi:10.1016/j.jct.2016.06.012):

Assay: xn = mol fraction of the nth substance listed
Details: 100 kPa, Liquid; for viscosity: Capillary tube (Ostwald / Ubbelohde) method; for mass density: Vibrating tube method

CCC[n+]1ccn(C)c1C.O=S(=O)([N-]S(=O)(=O)C(F)(F)F)C(F)(F)F + O=C1CCCO1
Details | mass density [kg/m3] | viscosity [mPa·s]
293.15 K, x1 = 0.0505 | 1184.15 | 2.47
293.15 K, x1 = 0.1001 | 1226.3 | 3.4
293.15 K, x1 = 0.1492 | 1259.98 | 4.72
293.15 K, x1 = 0.1998 | 1288.55 | 6.2
293.15 K, x1 = 0.3008 | 1332.65 | 9.95
293.15 K, x1 = 0.4031 | 1365.48 | 15.94
293.15 K, x1 = 0.5048 | 1390.46 | 25.66
293.15 K, x1 = 0.6031 | 1409.62 | 38.98
293.15 K, x1 = 0.6973 | 1424.67 | 54.53
293.15 K, x1 = 0.7994 | 1438.25 | 74.49
293.15 K, x1 = 0.8711 | 1446.46 | 89.77
293.15 K, x1 = 1 | 1459.14 | 121.7
298.15 K, x1 = 0.0505 | 1179.18 | 2.26
298.15 K, x1 = 0.1001 | 1221.4 | 3.07
298.15 K, x1 = 0.1492 | 1255.08 | 4.21
298.15 K, x1 = 0.1998 | 1283.68 | 5.44
298.15 K, x1 = 0.3008 | 1327.83 | 8.61
298.15 K, x1 = 0.4031 | 1360.68 | 13.23
298.15 K, x1 = 0.5048 | 1385.67 | 20.56
298.15 K, x1 = 0.6031 | 1404.85 | 30.47
298.15 K, x1 = 0.6973 | 1419.93 | 42.29
298.15 K, x1 = 0.7994 | 1433.53 | 57.35
298.15 K, x1 = 0.8711 | 1441.74 | 69.78
298.15 K, x1 = 1 | 1454.44 | 92.8
303.15 K, x1 = 0.0505 | 1174.28 | 2.1
303.15 K, x1 = 0.1001 | 1216.49 | 2.82
303.15 K, x1 = 0.1492 | 1250.18 | 3.78
303.15 K, x1 = 0.1998 | 1278.79 | 4.88
303.15 K, x1 = 0.3008 | 1322.96 | 7.6
303.15 K, x1 = 0.4031 | 1355.84 | 11.41
303.15 K, x1 = 0.5048 | 1380.86 | 17.18
303.15 K, x1 = 0.6031 | 1400.07 | 24.6
303.15 K, x1 = 0.6973 | 1415.16 | 33.28
303.15 K, x1 = 0.7994 | 1428.78 | 44.5
303.15 K, x1 = 0.8711 | 1437 | 54.92
303.15 K, x1 = 1 | 1449.72 | 72.1
308.15 K, x1 = 0.0505 | 1169.38 | 1.96
308.15 K, x1 = 0.1001 | 1211.58 | 2.56
308.15 K, x1 = 0.1492 | 1245.28 | 3.45
308.15 K, x1 = 0.1998 | 1273.9 | 4.42
308.15 K, x1 = 0.3008 | 1318.1 | 6.83
308.15 K, x1 = 0.4031 | 1351.01 | 9.99
308.15 K, x1 = 0.5048 | 1376.06 | 14.57
308.15 K, x1 = 0.6031 | 1395.28 | 20.33
308.15 K, x1 = 0.6973 | 1410.4 | 27.25
308.15 K, x1 = 0.7994 | 1424.03 | 35.98
308.15 K, x1 = 0.8711 | 1432.26 | 44.23
308.15 K, x1 = 1 | 1445 | 57.76
313.15 K, x1 = 0.0505 | 1164.47 | 1.82
313.15 K, x1 = 0.1001 | 1206.67 | 2.36
313.15 K, x1 = 0.1492 | 1240.38 | 3.18
313.15 K, x1 = 0.1998 | 1269.01 | 4.04
313.15 K, x1 = 0.3008 | 1313.24 | 6.09
313.15 K, x1 = 0.4031 | 1346.18 | 8.71
313.15 K, x1 = 0.5048 | 1371.25 | 12.55
313.15 K, x1 = 0.6031 | 1390.5 | 17.39
313.15 K, x1 = 0.6973 | 1405.64 | 22.52
313.15 K, x1 = 0.7994 | 1419.29 | 30.01
313.15 K, x1 = 0.8711 | 1427.53 | 36.05
313.15 K, x1 = 1 | 1440.28 | 46.53
318.15 K, x1 = 0.0505 | 1159.57 | 1.68
318.15 K, x1 = 0.1001 | 1201.76 | 2.2
318.15 K, x1 = 0.1492 | 1235.48 | 2.97
318.15 K, x1 = 0.1998 | 1264.13 | 3.73
318.15 K, x1 = 0.3008 | 1308.38 | 5.5
318.15 K, x1 = 0.4031 | 1341.35 | 7.79
318.15 K, x1 = 0.5048 | 1366.46 | 10.94
318.15 K, x1 = 0.6031 | 1385.73 | 15.01
318.15 K, x1 = 0.6973 | 1400.88 | 19.07
318.15 K, x1 = 0.7994 | 1414.55 | 24.95
318.15 K, x1 = 0.8711 | 1422.81 | 29.91
318.15 K, x1 = 1 | 1435.57 | 38.4
323.15 K, x1 = 0.0505 | 1154.66 | 1.58
323.15 K, x1 = 0.1001 | 1196.85 | 2.04
323.15 K, x1 = 0.1492 | 1230.58 | 2.73
323.15 K, x1 = 0.1998 | 1259.24 | 3.38
323.15 K, x1 = 0.3008 | 1303.52 | 4.93
323.15 K, x1 = 0.4031 | 1336.53 | 6.9
323.15 K, x1 = 0.5048 | 1361.66 | 9.56
323.15 K, x1 = 0.6031 | 1380.96 | 12.76
323.15 K, x1 = 0.6973 | 1396.13 | 16.4
323.15 K, x1 = 0.7994 | 1409.83 | 20.66
323.15 K, x1 = 0.8711 | 1418.1 | 24.69
323.15 K, x1 = 1 | 1430.87 | 31.89

CCn1cc[n+](C)c1C.O=S(=O)([N-]S(=O)(=O)C(F)(F)F)C(F)(F)F + O=C1CCCO1
Details | mass density [kg/m3] | viscosity [mPa·s]
293.15 K, x1 = 0.0493 | 1186.33 | 2.39
293.15 K, x1 = 0.1001 | 1232.87 | 3.16
293.15 K, x1 = 0.1526 | 1271.98 | 4.27
293.15 K, x1 = 0.2001 | 1301.42 | 5.28
293.15 K, x1 = 0.3001 | 1350.26 | 8.11
293.15 K, x1 = 0.4013 | 1387.19 | 12.59
293.15 K, x1 = 0.5004 | 1415.28 | 19.41
293.15 K, x1 = 0.5995 | 1437.76 | 29.23
293.15 K, x1 = 0.6929 | 1455.24 | 40.61
293.15 K, x1 = 0.814 | 1473.91 | 57.8
293.15 K, x1 = 0.9001 | 1485.09 | 71.36
293.15 K, x1 = 1 | 1496.32 | 89.27
298.15 K, x1 = 0.0493 | 1181.34 | 2.2
298.15 K, x1 = 0.1001 | 1227.92 | 2.88
298.15 K, x1 = 0.1526 | 1267.02 | 3.89
298.15 K, x1 = 0.2001 | 1296.47 | 4.75
298.15 K, x1 = 0.3001 | 1345.33 | 7.21
298.15 K, x1 = 0.4013 | 1382.26 | 10.79
298.15 K, x1 = 0.5004 | 1410.36 | 16.23
298.15 K, x1 = 0.5995 | 1432.85 | 23.73
298.15 K, x1 = 0.6929 | 1450.35 | 32.36
298.15 K, x1 = 0.814 | 1469.03 | 45.73
298.15 K, x1 = 0.9001 | 1480.21 | 56.03
298.15 K, x1 = 1 | 1491.47 | 70.77
303.15 K, x1 = 0.0493 | 1176.42 | 2.02
303.15 K, x1 = 0.1001 | 1222.97 | 2.64
303.15 K, x1 = 0.1526 | 1262.07 | 3.55
303.15 K, x1 = 0.2001 | 1291.53 | 4.31
303.15 K, x1 = 0.3001 | 1340.4 | 6.49
303.15 K, x1 = 0.4013 | 1377.35 | 9.66
303.15 K, x1 = 0.5004 | 1405.48 | 13.87
303.15 K, x1 = 0.5995 | 1427.99 | 19.69
303.15 K, x1 = 0.6929 | 1445.51 | 26.32
303.15 K, x1 = 0.814 | 1464.21 | 36.61
303.15 K, x1 = 0.9001 | 1475.4 | 45.12
303.15 K, x1 = 1 | 1486.67 | 57.02
308.15 K, x1 = 0.0493 | 1171.5 | 1.87
308.15 K, x1 = 0.1001 | 1218.03 | 2.42
308.15 K, x1 = 0.1526 | 1257.12 | 3.23
308.15 K, x1 = 0.2001 | 1286.58 | 3.92
308.15 K, x1 = 0.3001 | 1335.47 | 5.84
308.15 K, x1 = 0.4013 | 1372.45 | 8.44
308.15 K, x1 = 0.5004 | 1400.6 | 11.97
308.15 K, x1 = 0.5995 | 1423.13 | 16.7
308.15 K, x1 = 0.6929 | 1440.66 | 21.94
308.15 K, x1 = 0.814 | 1459.39 | 30.04
308.15 K, x1 = 0.9001 | 1470.6 | 36.72
308.15 K, x1 = 1 | 1481.87 | 46.6
313.15 K, x1 = 0.0493 | 1166.58 | 1.74
313.15 K, x1 = 0.1001 | 1213.09 | 2.24
313.15 K, x1 = 0.1526 | 1252.18 | 2.97
313.15 K, x1 = 0.2001 | 1281.64 | 3.59
313.15 K, x1 = 0.3001 | 1330.56 | 5.24
313.15 K, x1 = 0.4013 | 1367.56 | 7.44
313.15 K, x1 = 0.5004 | 1395.73 | 10.46
313.15 K, x1 = 0.5995 | 1418.28 | 14.19
313.15 K, x1 = 0.6929 | 1435.84 | 18.31
313.15 K, x1 = 0.814 | 1454.58 | 24.98
313.15 K, x1 = 0.9001 | 1465.81 | 30.3
313.15 K, x1 = 1 | 1477.09 | 38.62
318.15 K, x1 = 0.0493 | 1161.65 | 1.62
318.15 K, x1 = 0.1001 | 1208.15 | 2.07
318.15 K, x1 = 0.1526 | 1247.24 | 2.72
318.15 K, x1 = 0.2001 | 1276.71 | 3.27
318.15 K, x1 = 0.3001 | 1325.64 | 4.7
318.15 K, x1 = 0.4013 | 1362.67 | 6.63
318.15 K, x1 = 0.5004 | 1390.87 | 9.21
318.15 K, x1 = 0.5995 | 1413.44 | 12.26
318.15 K, x1 = 0.6929 | 1431.02 | 15.7
318.15 K, x1 = 0.814 | 1449.79 | 21.08
318.15 K, x1 = 0.9001 | 1461.03 | 25.54
318.15 K, x1 = 1 | 1472.32 | 32.33
323.15 K, x1 = 0.0493 | 1156.72 | 1.52
323.15 K, x1 = 0.1001 | 1203.21 | 1.9
323.15 K, x1 = 0.1526 | 1242.31 | 2.5
323.15 K, x1 = 0.2001 | 1271.78 | 3.02
323.15 K, x1 = 0.3001 | 1320.73 | 4.29
323.15 K, x1 = 0.4013 | 1357.79 | 6.05
323.15 K, x1 = 0.5004 | 1386.01 | 8.19
323.15 K, x1 = 0.5995 | 1408.61 | 10.68
323.15 K, x1 = 0.6929 | 1426.21 | 13.74
323.15 K, x1 = 0.814 | 1445.01 | 18.23
323.15 K, x1 = 0.9001 | 1456.26 | 21.94
323.15 K, x1 = 1 | 1467.56 | 27.06
